Measured values: US8383183B2, “Sweetness enhancers, sweetness enhanced sweetener compositions, methods for their formulation, and uses” (The Coca-Cola Company, priority 2007, dated 2013)
Where “and” joins values, the source holds several entries; their conditions need not be identical. Equal entries are not always repeated.

How the values were obtained:
sweet taste [1] = test: Preliminary sulfamate analogue Sweetness Detection Threshold (SDT) estimation, sip-and-spit, one experienced subject; assay type: in vivo; conditions: for sweet taste exhibited: 15.6-1,000 ppm solutions in water, one subject
Method: Sensory studies that were carried out on the N-substituted sulfamic acid salts included 1) preliminary sulfamate analogue Sweetness Detection Threshold (SDT) estimation, 2) refined Sweetness Detection Threshold (SDT) estimation, 3) N-substituted sulfamic acid salts mixed with 6% sucrose Sweetness Enhancement Test and 4) repeat of step 3. A 1,000 ppm sulfamate analogue solution was prepared by dissolution of 20 mg sulfamate analogue in 20 mL purified water. An aliquot (10 mL) of this solution was diluted to 20 mL with water to obtain a 500 ppm solution. Additional 1:1 serial dilutions step were used to obtain 250, 125, 62.5, 31.2 and 15.6 ppm solutions. These solutions were then tasted in ascending order of concentration by one experienced subject by using a sip-and-spit protocol. The subject's estimated SDT was determined to be at the lowest concentration at which sweetness was definitely observed.

[2] = tested on: sweetness intensity of 6% sucrose; test: Sulfamate & 6% sucrose Sweetness Enhancement Test (sensory rating against 6-10% sucrose references); assay type: in vivo; parameters: key to Sweetness Intensity Rating (6-10), subject #1 / Sweetness Intensity Rating (6-10), subject #2 / Sweetness Intensity Rating (6-10), subject #3 / Sweetness Intensity Rating (6-10), subject #4 / Sweetness Intensity Rating (6-10), subject #5 / Average Intensity Rating: sweetness rated 6-10 relative to 6-10% sucrose references
Method: Sensory studies that were carried out on the N-substituted sulfamic acid salts included 1) preliminary sulfamate analogue Sweetness Detection Threshold (SDT) estimation, 2) refined Sweetness Detection Threshold (SDT) estimation, 3) N-substituted sulfamic acid salts mixed with 6% sucrose Sweetness Enhancement Test and 4) repeat of step 3. Reference samples were prepared at 6, 7, 8, 9 and 10% sucrose (w/v). […] Each of the ten samples was then individually rated for sweetness intensity on a scale of 6-10 relative to the 6-10% sucrose references.

[3] = Rate of dissolution in H2O at 25° C.; assay type: physicochemical
sweet taste [4] = test: N-alkyl sulfamate SDT estimation, sip-and-spit, 5 experienced subjects; assay type: in vivo
Method: A 250 ppm solution of 4 was prepared by dissolution of 50 mg sulfamate in 200 mL purified water. An aliquot (100 mL) of this solution then was diluted to 200 mL with water to obtain a 125 ppm solution. Additional 1:1 serial dilution steps were used to prepare 62.5, 31.2 and 15.6 ppm solutions. These solutions then were tasted in ascending order of concentration by 5 experienced subjects by a sip-and-spit protocol.

[5] = 125 ppm in 6% sucrose, single test sample, listed as NS

CC(C)(C)CCNS(=O)(=O)[O-].[Na+] [sulfamate 3A, sodium 1H-3,3-dimethyl butyl sulfamate]
sweet taste of the sulfamate by itself (sweet taste [1]; no sugar): not sweet by itself
sweetness intensity of a 6.0% sugar solution increased to the equivalent of ([2]; about 406 ppm in 6.0% sugar solution): about 7.0 % sugar solution

C=C1C[C@@]23CC[C@H]4[C@@](C)(CCC[C@@]4(C)C(=O)O[C@@H]4O[C@H](CO)[C@@H](O)[C@H](O)[C@H]4O)[C@@H]2CC[C@]1(O[C@@H]1O[C@H](CO)[C@@H](O)[C@H](O[C@@H]2O[C@H](CO)[C@@H](O)[C@H](O)[C@H]2O)[C@H]1O[C@@H]1O[C@H](CO)[C@@H](O)[C@H](O)[C@H]1O)C3 [Form 4, rebaudioside A]
Rate of dissolution in H2O at 25° C. ([3]; in 5 minutes): High (>35.0%

C=C1C[C@@]23CC[C@H]4[C@@](C)(CCC[C@@]4(C)C(=O)O[C@@H]4O[C@H](CO)[C@@H](O)[C@H](O)[C@H]4O)[C@@H]2CC[C@]1(O[C@@H]1O[C@H](CO)[C@@H](O)[C@H](O[C@@H]2O[C@H](CO)[C@@H](O)[C@H](O)[C@H]2O)[C@H]1O[C@@H]1O[C@H](CO)[C@@H](O)[C@H](O)[C@H]1O)C3 [Form 2, rebaudioside A]
Rate of dissolution in H2O at 25° C. ([3]; in 5 minutes): Intermediate (<30%

C=C1C[C@@]23CC[C@H]4[C@@](C)(CCC[C@@]4(C)C(=O)O[C@@H]4O[C@H](CO)[C@@H](O)[C@H](O)[C@H]4O)[C@@H]2CC[C@]1(O[C@@H]1O[C@H](CO)[C@@H](O)[C@H](O[C@@H]2O[C@H](CO)[C@@H](O)[C@H](O)[C@H]2O)[C@H]1O[C@@H]1O[C@H](CO)[C@@H](O)[C@H](O)[C@H]1O)C3 [Form 3, rebaudioside A]
Rate of dissolution in H2O at 25° C. ([3]; in 5 minutes): High (>30%

sodium 1H-thiazolyl sulfamate [sulfamate 5]
sweet taste of the sulfamate by itself (sweet taste [1]; no sugar): not sweet by itself
sweetness intensity of a 6.0% sugar solution increased to the equivalent of ([2]; about 404 ppm in 6.0% sugar solution): about 6.9 % sugar solution

O=S(=O)([O-])NC1CC2CCC1C2.[Na+] (stereo not shown) [sulfamate 4, sodium bicycle[2.2.1]heptan-2-yl sulfamate]
sweet taste exhibited (sweet taste [1]): exhibit sweet taste
off-taste (sweet taste [1]; 1,000 ppm in water): no off-taste
taste (sweet taste [1]; 1,000 ppm in water): strong sweet taste
sweet taste of the sulfamate by itself (sweet taste [1]; no sugar): very faint sweet taste
taste (sweet taste [1]; ca. 62 ppm in water): weak sweet taste
Sweetness Detection Threshold (SDT) (sweet taste [4]; 5 subjects, in water): < 125 ppm
taste (sweet taste [4]; 15.6 ppm solution, all 5 subjects): absence of taste
taste (sweet taste [4]; 31.2 ppm solution, all 5 subjects): absence of taste
taste (sweet taste [4]; 62.5 ppm solution, 3 out of 5 subjects): very faint sweetness
sweetness, sugar equivalent (sweet taste [4]; 125 ppm solution, 4 out of 5 subjects): less than 1 % sugar equivalent
sweetness comparable to that of sucrose (sweet taste [4]; 250 ppm sample, all 5 subjects): ca. 2 % sucrose
equivalent sweetness intensity by itself (sweet taste [4]; about 62 ppm, by itself): < 1 % sugar solution
Average Intensity Rating ([2]; 125 ppm in 6% sucrose, single test sample, mean of 5 subjects, listed as NS): 8.2 and 8.4 and 7.2 and 8.6
Sweetness Intensity Rating (6-10), subject #1 [2, 5]: 8 and 9 and 7
Sweetness Intensity Rating (6-10), subject #2 [2, 5]: 8 and 9 and 7 and 10
Sweetness Intensity Rating (6-10), subject #3 [2, 5]: 8 and 7
Sweetness Intensity Rating (6-10), subject #4 [2, 5]: 9 and 7
Sweetness Intensity Rating (6-10), subject #5 [2, 5]: 8 and 7
average sweetness intensity rating, with 6% Sucrose Test Average ([2]; 125 ppm in 6% sucrose, scale 6-10 relative to 6-10% sucrose references, mean of four test samples): 8.1
sweetness intensity of a 6.0% sugar solution increased to the equivalent of ([2]; about 125 ppm in 6.0% sugar solution): about 8.1 % sugar solution

CC1CCCCC1NS(=O)(=O)[O-].[Na+] (stereo not shown) [sulfamate 2, sodium 1H-2-methyl cyclohexyl sulfamate]
sweet taste exhibited (sweet taste [1]): exhibit sweet taste
off-taste (sweet taste [1]; 1,000 ppm in water): some bitterness off-taste problems
taste (sweet taste [1]; 1,000 ppm in water): slight sweet taste
sweet taste of the sulfamate by itself (sweet taste [1]; no sugar): not sweet by itself
sweetness intensity of a 6.0% sugar solution increased to the equivalent of ([2]; about 430 ppm in 6.0% sugar solution): about 7.3 % sugar solution

C=C1C[C@@]23CC[C@H]4[C@@](C)(CCC[C@@]4(C)C(=O)O[C@@H]4O[C@H](CO)[C@@H](O)[C@H](O)[C@H]4O)[C@@H]2CC[C@]1(O[C@@H]1O[C@H](CO)[C@@H](O)[C@H](O[C@@H]2O[C@H](CO)[C@@H](O)[C@H](O)[C@H]2O)[C@H]1O[C@@H]1O[C@H](CO)[C@@H](O)[C@H](O)[C@H]1O)C3 [Form 1, rebaudioside A]
Rate of dissolution in H2O at 25° C. ([3]; in 60 minutes): Very low (<0.2%

sodium 1H-1,3,5-triazolyl sulfamate [sulfamate 1]
sweet taste of the sulfamate by itself (sweet taste [1]; no sugar): not sweet by itself
sweetness intensity of a 6.0% sugar solution increased to the equivalent of ([2]; about 372 ppm in 6.0% sugar solution): about 7.1 % sugar solution

CC(C)(C)CCNS(=O)(=O)[O-].[K+] [sulfamate 3B, potassium 1H-3,3-dimethyl butyl sulfamate]
sweet taste of the sulfamate by itself (sweet taste [1]; in amounts up to 1000 ppm): not sweet by itself
sweetness intensity of a 6.0% sugar solution increased to the equivalent of ([2]; about 200 ppm in 6.0% sugar solution): about 7.0 % sugar solution
